# Entries after “also recorded” stand apart in the source; their conditions may differ.
# Assays:
# DBA mice = details: cited from earlier work; for seizure-induced respiratory failure and death in DBA mice: dose-dependent manner
# [1] = in vivo; cited from earlier work
# [2] = test system: DBA/1 mice (audiogenic seizures, seizure-induced respiratory arrest); test: Dose- and time-dependent effects of FFA on audiogenic seizures (AGSz) and S-IRA in DBA/1 mice; type: in vivo, mouse
# Excerpt: These studies involved age matched (<80 days) male DBA/1 mice obtained from ENVIGO. […] Starting at postnatal day 23-25, the mice were primed and tested for consistent susceptibility to AGSz and S-IRA by presenting an intense acoustic stimulus, as described previously.
# The typical seizure semiology in the DBA/1 mice begins with a wild running phase, followed by clonic-tonic seizures and then tonic hind-limb extension that immediately leads to S-IRA during post-ictal behavioral depression (PID). The onset of S-IRA was visually determined by the occurrence of respiratory failure following loss of the righting reflex, relaxation of the pinnae, and then a generalized loss of muscle tone. These behaviors are reliable indicators of imminent sudden death in DBA mice. […] The mice were placed in a supine position, and a polyethylene tube (4.4 mm external diameter) connected to the outflow of a rodent respirator (Harvard Apparatus 680), pumping one cc of room air at 200 strokes/min, was the placed over the nostrils, which produced observable displacement of the chest. […] The mice were monitored until they regained the righting reflex and then returned to their home cage. Video recordings of seizure behaviors and recovery were made for off-line evaluation and analysis, including the duration of PID, as indicated by time from muscle tone loss to return of the righting reflex.
# The videos of seizure behaviors were analyzed visually, and the incidence (frequency) of AGSz, seizure severity, and incidence (frequency) of S-IRA following drug treatment were compared statistically to vehicle controls using the Chi-square, Mann-Whitney U or paired samples t-test with SPSS software. The ED50 was calculated using SigmaPlot 13 and Microsoft® Excel. The experimental protocols used in these studies were approved by the Laboratory Animal Care and Use Committee of Southern Illinois University School of Medicine, which are in accordance with National Institutes of Health guidelines for the care and use of laboratory animals. Measures to minimize animal usage as well as pain and discomfort were included in these procedures.
# The incidence of S-IRA and tonic seizures were analyzed Chi-square test with a significance level set at p<0.05.
# [3] = test system: DBA/1 mice (audiogenic seizures, seizure-induced respiratory arrest); test: Reversal of FFA's anticonvulsant and S-IRA blocking effects by selective 5-HT receptor antagonists in DBA/1 mice; type: in vivo, mouse; details: for reversal of S-IRA blocking effect of FFA (reduction in S-IRA incidence) / reversal of anticonvulsant effect of FFA (seizure severity, incidence of tonic seizures): antagonist dose not stated; for reversal of FFA's S-IRA blocking effect: 30 min before AGSz
# 5-HT2B receptor = 5-HT2B receptor (Homo sapiens, UniProt P41595); details: cited from earlier work
# 5-HT2C receptor = molecular target: T1, 5-HT2C receptor (Homo sapiens, UniProt P28335); details: cited from earlier work
# T1 sequence (P28335 33-458): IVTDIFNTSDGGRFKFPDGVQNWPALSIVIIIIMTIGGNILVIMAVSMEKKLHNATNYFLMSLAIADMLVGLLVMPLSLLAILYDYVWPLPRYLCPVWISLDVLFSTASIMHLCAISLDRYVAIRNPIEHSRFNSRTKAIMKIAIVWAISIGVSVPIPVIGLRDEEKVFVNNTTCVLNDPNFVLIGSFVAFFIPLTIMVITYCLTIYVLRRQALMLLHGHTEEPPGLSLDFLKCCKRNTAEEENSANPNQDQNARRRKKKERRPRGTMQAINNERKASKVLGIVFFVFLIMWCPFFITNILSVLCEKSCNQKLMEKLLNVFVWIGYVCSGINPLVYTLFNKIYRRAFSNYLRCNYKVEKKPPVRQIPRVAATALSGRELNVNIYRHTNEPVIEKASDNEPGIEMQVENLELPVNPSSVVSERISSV
# [4] = test system: patients with Dravet syndrome; details: add-on (adjunctive) agent; cited from earlier work
# [5] = oral administration; cited from earlier work
# Chain of 5-HT2B receptor (P41595 whole entry): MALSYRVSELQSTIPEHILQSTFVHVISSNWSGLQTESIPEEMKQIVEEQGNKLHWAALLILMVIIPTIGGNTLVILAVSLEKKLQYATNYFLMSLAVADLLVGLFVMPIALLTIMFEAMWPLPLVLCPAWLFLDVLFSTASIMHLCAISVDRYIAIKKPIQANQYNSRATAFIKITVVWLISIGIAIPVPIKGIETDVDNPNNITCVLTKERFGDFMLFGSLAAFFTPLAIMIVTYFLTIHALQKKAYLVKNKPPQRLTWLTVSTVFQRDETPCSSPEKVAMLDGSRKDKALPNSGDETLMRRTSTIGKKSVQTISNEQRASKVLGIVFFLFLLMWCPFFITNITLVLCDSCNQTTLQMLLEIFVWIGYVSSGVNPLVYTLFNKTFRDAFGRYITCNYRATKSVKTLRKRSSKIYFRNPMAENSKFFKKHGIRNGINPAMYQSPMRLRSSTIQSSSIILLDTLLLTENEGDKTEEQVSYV
structure (smiles),measurement,setting,value
CNCCC(Oc1ccc(C(F)(F)F)cc1)c1ccccc1 (stereo not drawn) [fluoxetine],S-IRA in DBA/1 mice,DBA mice; acting via 5-HT3 receptors,can prevent
same,seizure-induced respiratory failure and death in DBA mice,DBA mice,prevent
COCCCC/C(=N\OCCN)c1ccc(C(F)(F)F)cc1 [fluvoxamine],seizure-induced respiratory failure and death in DBA mice,DBA mice,prevent
COc1ccc(C(CN(C)C)C2(O)CCCCC2)cc1 (stereo not drawn) [venlafaxine],seizure-induced respiratory failure and death in DBA mice,DBA mice,prevent
CNCC[C@@H](Oc1ccccc1C)c1ccccc1 [atomoxetine],seizure-induced respiratory failure and death in DBA mice,DBA mice,prevent
CCC1(c2ccccc2)C(=O)NC(=O)NC1=O [Phenobarbital],half-life,[1],92 h
"CCNC(C)Cc1cccc(C(F)(F)F)c1 (racemic) [FFA, 3-trifluoromethyl-N-ethylamphetamine]",incidence of S-IRA,[2]; FFA 5 mg/kg i.p.,not affected
same,incidence of S-IRA,"[2]; FFA 10 mg/kg i.p., starting at 8 h, vs saline treated controls",significant reduction
same,incidence of S-IRA,"[2]; FFA 15 mg/kg (n=73) vs saline (n=38), FIGS. 1C-1D",reduction
same,incidence of S-IRA,"[2]; FFA 15 mg/kg i.p., starting at 8 h, vs saline treated controls",significant reduction
same,return of tonic AGSz and S-IRA susceptibility (time after FFA),[2]; FFA 20 mg/kg,approximately 48 h
same,incidence of S-IRA,"[2]; FFA 20 mg/kg i.p., starting at 8 h, vs saline treated controls",significant reduction
same,effect on S-IRA,[2]; FFA 10-20 mg/kg,blocking effect
same,mice with significant reduction in the incidence of S-IRA,"[2]; FFA 10-20 mg/kg, 8 h time point (FIG. 1B)",100%
same,incidence of tonic seizures,"[2]; FFA i.p., dose not stated",significantly reduced
same,seizure severity / AGSz susceptibility,[2]; dose- and time-dependent,significantly reduced seizure severity or blocked AGSz susceptibility
same,"action at the 5-HT4 receptor, concluded from reversal by GR125487",[3]; conclusion from antagonist study in DBA/1 mice,agonist
same,affinity for 5-HT2B receptor,5-HT2B receptor,high affinity
same,affinity for 5-HT2C receptor,5-HT2C receptor,high affinity
same,seizure activity (frequency and/or severity),[4],significantly reduced
COc1ccccc1N1CCN(CCN(C(=O)C2CCCCC2)c2ccccn2)CC1 [WAY100635],reversal of FFA's effect (AGSz severity / S-IRA),[3]; WAY100635 0.1-15 mg/kg,not effective at any dose tested
CC[C@@H](c1cccc(O)c1)[C@@H](C)CN(C)C [Tapentadol],duration of analgesia,[5],4 to 6 h
same,onset of analgesia,[5],≤ 32 min
Cc1nccn1CC1CCc2c(c3ccccc3n2C)C1=O (stereo not drawn) [Ondansetron],reversal of FFA's effect (AGSz severity / S-IRA),[3]; Ondansetron 1-3 mg/kg,not effective at any dose tested
same,reversal of FFA's effect (AGSz severity / S-IRA),[3]; Ondansetron 2-3 mg/kg,not effective at any dose tested
same,reversal of S-IRA blocking effect of FFA (reduction in S-IRA incidence),[3],did not reverse
same,"reversal of anticonvulsant effect of FFA (seizure severity, incidence of tonic seizures)",[3],did not reverse
CC1CCN(CC[C@H]2CCCN2S(=O)(=O)c2cccc(O)c2)CC1 [SB269970],reversal of FFA's anticonvulsant effect against the severity of AGSz,[3]; SB269970 30 mg/kg and 40 mg/kg,able to reverse; also recorded: block
same,reversal of FFA's S-IRA blocking effect,[3]; SB269970 30 mg/kg and 40 mg/kg,not its S-IRA blocking effect
same,"reversal of anticonvulsant effect of FFA (seizure severity, incidence of tonic seizures)",[3],reversed
Cc1nc2sccn2c(=O)c1CCN1CCC(=C(c2ccc(F)cc2)c2ccc(F)cc2)CC1 [Ritanserin],reversal of FFA's anticonvulsant effect against the severity of AGSz,[3]; Ritanserin 20 mg/kg,able to reverse; also recorded: block
same,reversal of FFA's anticonvulsant effect against the severity of AGSz,[3]; Ritanserin 10-20 mg/kg,able to reverse
same,reversal of FFA's S-IRA blocking effect,[3]; Ritanserin 10-20 mg/kg,not its S-IRA blocking effect
same,reversal of S-IRA blocking effect of FFA (reduction in S-IRA incidence),[3],reversed
same,"reversal of anticonvulsant effect of FFA (seizure severity, incidence of tonic seizures)",[3],reversed
CN[C@H]1CC[C@@H](c2ccc(Cl)c(Cl)c2)c2ccccc21 [sertraline],seizure-induced respiratory failure and death in DBA mice,DBA mice,prevent

# — patent publication US10952976B2 (priority 2018, dated 2021)
